Common to all, as to assay: UPLC rhamnosylation assay, Michaelis-Menten fit
Holding throughout (details): 0.1 mM UDP-rhamnose as co-substrate; pH 7.5, 37 °C

The test system of one assay is T1, CiRhaT-JX4x (UGT79A21).
T1 construct: full-length, 469 aa, MBP fusion (pMAL-c5X, tag removal not mentioned), E. coli Rosetta (DE3)
In kind it is biochemical, Chrysanthemum indicum.

The subject of the next assay is T2, CnRhaT-HB2x (UGT79A23).
T2 construct: full-length, 469 aa, MBP fusion (pMAL-c5X, tag removal not mentioned), E. coli Rosetta (DE3)
In kind it is biochemical, Chrysanthemum nankingense.

The next assay relates to T3, CiRhaT-HB2x (UGT79A22).
T3 construct: full-length, 469 aa, MBP fusion (pMAL-c5X, tag removal not mentioned), E. coli Rosetta (DE3)
In kind it is biochemical, Chrysanthemum indicum.

In another assay the test system is T4, CiRhaT-GD4x (UGT79A20).
T4 construct: full-length, 469 aa, MBP fusion (pMAL-c5X, tag removal not mentioned), E. coli Rosetta (DE3)
Type of assay: biochemical, Chrysanthemum indicum.

With `COc1ccc(-c2cc(=O)c3c(O)cc(O[C@@H]4O[C@H](CO)[C@@H](O)[C@H](O)[C@H]4O)cc3o2)cc1` [compound 1, acacetin-7-O-glucoside], the Michaelis-Menten constant (Km) is 8.27 ± 0.984 µM in the assay on CiRhaT-JX4x (UGT79A21), 9.45 ± 1.5 µM in the assay with CnRhaT-HB2x (UGT79A23), 8.71 ± 1.79 µM in the assay with CiRhaT-HB2x (UGT79A22) and 14.2 ± 1.36 µM in the assay on CiRhaT-GD4x (UGT79A20).

With `O=c1cc(-c2ccc(O)cc2)oc2cc(O[C@@H]3O[C@H](CO)[C@@H](O)[C@H](O)[C@H]3O)cc(O)c12` [compound 2, apigenin-7-O-glucoside], the Km with CiRhaT-JX4x (UGT79A21) came out at 45.3 ± 6.08 µM; in the assay with CnRhaT-HB2x (UGT79A23), 140 ± 32.1 µM; in the assay with CiRhaT-HB2x (UGT79A22) it was 57.1 ± 5.34 µM; with CiRhaT-GD4x (UGT79A20) it was 32.4 ± 5.9 µM.

Regarding `COc1ccc(-c2cc(=O)c3c(O)cc(O[C@@H]4O[C@H](CO)[C@@H](O)[C@H](O)[C@H]4O)cc3o2)cc1O` [compound 3, diosmetin-7-O-glucoside], the Km with CiRhaT-JX4x (UGT79A21) was found to be 7.67 ± 0.809 µM; with CnRhaT-HB2x (UGT79A23), 17.7 ± 2.82 µM; with CiRhaT-HB2x (UGT79A22) it was 9.35 ± 1.38 µM; with CiRhaT-GD4x (UGT79A20) it was 12.9 ± 1.27 µM.
